This is an account of results in ChEMBL document CHEMBL4476865, “Neurotrypsin inhibitors” (2013).

In one data set the target is T1, Neurotrypsin (Homo sapiens, UniProt P56730).
T1 sequence (P56730 whole entry): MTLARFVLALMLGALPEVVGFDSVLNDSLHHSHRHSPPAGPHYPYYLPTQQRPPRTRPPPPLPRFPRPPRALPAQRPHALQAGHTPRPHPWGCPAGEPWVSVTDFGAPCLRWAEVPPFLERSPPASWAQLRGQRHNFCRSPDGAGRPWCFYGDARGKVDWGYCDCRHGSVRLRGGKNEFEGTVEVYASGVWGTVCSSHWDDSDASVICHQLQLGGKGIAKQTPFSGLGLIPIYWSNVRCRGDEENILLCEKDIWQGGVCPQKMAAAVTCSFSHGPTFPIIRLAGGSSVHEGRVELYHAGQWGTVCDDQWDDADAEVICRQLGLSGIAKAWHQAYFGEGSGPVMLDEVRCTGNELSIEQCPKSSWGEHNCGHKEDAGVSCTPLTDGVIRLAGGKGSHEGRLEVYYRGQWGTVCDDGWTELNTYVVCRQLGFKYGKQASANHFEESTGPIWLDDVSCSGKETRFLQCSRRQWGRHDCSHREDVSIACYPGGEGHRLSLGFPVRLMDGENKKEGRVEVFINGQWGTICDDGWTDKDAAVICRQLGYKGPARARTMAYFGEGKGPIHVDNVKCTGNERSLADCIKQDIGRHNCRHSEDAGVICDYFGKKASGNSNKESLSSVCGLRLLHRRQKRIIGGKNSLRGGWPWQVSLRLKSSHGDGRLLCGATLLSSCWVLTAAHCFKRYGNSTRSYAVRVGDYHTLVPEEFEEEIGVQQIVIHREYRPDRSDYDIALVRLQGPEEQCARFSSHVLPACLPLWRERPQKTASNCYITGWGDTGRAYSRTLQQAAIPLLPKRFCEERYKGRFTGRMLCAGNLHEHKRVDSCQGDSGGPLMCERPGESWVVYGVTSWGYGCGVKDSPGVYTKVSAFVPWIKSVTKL
The experiment in a line: Inhibition of human neurotrypsin.

A short description of data set [1]: Inhibition of hog trypsin assessed as reduction in liberation of free para-nitroanilide using S-2222 substrate incubated for 20 to 30 mins. Set-up: species or system Sus scrofa.
Data set [2] in a line: Toxicity in C57/BL6 mouse assessed as weight loss dosed 3 times at 25 mg/kg, ip equivalent of active ingredient administered with 8 hrs gap between dose 1 and dose 2 and 16 hrs gap between dose 2 and dose 3 (reference value: 5.67%). Type of data set: organism-based. The conditions noted are these: in vivo.

Molecules are shown by their SMILES.

What is called IC50 is the concentration that inhibits the measured activity by half. For the molecule `O=C(NCc1ccc(Cl)s1)c1ccc(NC(=O)c2ccc(-c3nc4cc(Cl)c(Cl)cc4[nH]3)cc2)c(C(=O)O)c1`, the IC50 against Neurotrypsin was found to be 3.3 µM.
For the molecule `NCCCC[C@H](N)C(=O)O.O=C(Nc1ccc(Cl)cc1)c1ccc(NC(=O)c2ccc(-c3nc4cc(Cl)c(Cl)cc4[nH]3)cc2)c(C(=O)O)c1`, in data set [1], the IC50 is over 150 µM. Besides, the Activity in data set [2] is on record as 5.52%.
